The text below walks through data of patent publication EP0492113A2, “Herbicide resistant AHAS deletion mutants” (priority 1990, dated 1992).

Values joined by “and” are separate entries in the source; they are usually repeats but may differ in a detail not shown here. Equal entries are not always repeated.

For assay [1], the target named is T1, Wild type Arabidopsis AHAS (Arabidopsis thaliana, UniProt P17597).
T1 construct: made in house; host or cells: E. coli MF2000 (no endogenous AHAS), vector pKK233-2; ammonium sulfate fraction of the extract
T1 sequence (P17597 56-670): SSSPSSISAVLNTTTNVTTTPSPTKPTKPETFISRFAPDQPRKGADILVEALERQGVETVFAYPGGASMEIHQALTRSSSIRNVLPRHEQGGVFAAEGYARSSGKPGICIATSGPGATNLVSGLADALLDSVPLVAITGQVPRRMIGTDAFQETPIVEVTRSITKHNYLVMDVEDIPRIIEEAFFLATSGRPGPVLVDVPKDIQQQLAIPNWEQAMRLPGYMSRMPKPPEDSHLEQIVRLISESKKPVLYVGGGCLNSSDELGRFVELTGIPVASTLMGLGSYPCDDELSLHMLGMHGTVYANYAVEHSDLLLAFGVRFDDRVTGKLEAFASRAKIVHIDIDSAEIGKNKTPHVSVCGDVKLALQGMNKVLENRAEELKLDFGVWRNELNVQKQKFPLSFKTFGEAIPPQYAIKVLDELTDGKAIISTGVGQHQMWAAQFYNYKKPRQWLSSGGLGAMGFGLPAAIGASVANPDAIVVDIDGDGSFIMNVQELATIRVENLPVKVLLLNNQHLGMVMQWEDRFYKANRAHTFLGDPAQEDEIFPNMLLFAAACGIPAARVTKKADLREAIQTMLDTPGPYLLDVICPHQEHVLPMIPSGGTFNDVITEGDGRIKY
Briefly: AHAS enzyme assay (expression in E. coli MF2000), wild type enzyme. It counts as biochemical. As to conditions: wild type (pAC201); Figures 4 and 5. The protocol: AHAS enzyme assay (expression in E. coli) - The site directed mutants, pAC224 and pAC225, are utilized as templates for the generation of an E. coli based expression system. The insensitivity to herbicide is tested when the higher plant gene of interest is expressed in a bacterial strain devoid of any endogenous AHAS activity. To this end, the Nco1/Pst1 fragment of wild type Arabidopsis AHAS (pAC301), the Trp574-Leu substitution (pAC224) and the Trp574 deletion (pAC225) are subcloned into the Nco1/Pst1 site of the E. coli expression vector, pKK233-2 (purchased from Pharmacia). This expression plasmid contains an IPTG inducible promoter as well as a transcription termination sequence. Both regions surround an Nco1, HindIII and Pstl linker sequence that allows proper orientation of the gene of interest in relation to the bacterial promoter. Subcloning and ligation of the respective Ncol/Pstl fragments into Ncol/Pstl digested pKK233-2 DNA (ampicillin resistance) is as previously described. […] This bacterial strain is devoid of endogenous AHAS activity. Therefore, growth on a minimal media lacking isoleucine and valine (the end products of amino acid biosynthetic pathway of which the AHAS enzyme is involved) in an MF2000 strain transformed with either pAC224 (Trp574-Leu) or pAC225 (Trp del) requires the expression and function of the Arabidopsis gene in E. coli. […]

Assay [2] has as its target T2, AHAS produced by substitution of asparagine for serine at position 653 (pAC229) (Arabidopsis thaliana, UniProt P17597, S653N).
T2 construct: made in house; host or cells: E. coli MF2000
It counts as biochemical. Conditions: Ser653 to asparagine substitution; Figure 6.

The target of assay [3] is T3, mutant Arabidopsis AHAS allele having the Trp574 deletion (Arabidopsis thaliana, UniProt P17597, DEL574-574).
T3 construct: expressed in transfected cells; host or cells: leaf tissue of transgenic tobacco plant 10-1, Agrobacterium LBA4404 / pBIN19 with the 5.5 kb XbaI genomic fragment
The assay can be described thus: AHAS enzyme assay (leaf tissue) of tobacco deletion transformant 10-1. Conditions: leaf extract of kanamycin resistant deletion transformant 10-1. Format: biochemical. The method, then:
AHAS enzyme assay (leaf tissue) - Shortly after transfer to the greenhouse, extracts each of the kanamycin resistant transformants are prepared and assayed for insensitivity to the imidazolinone Pursuit® herbicide. Acetohydroxyacid synthase is extracted and assayed as described in the previous section. […] This Trp574 deletion transformant is selfed and backcrossed to Wisconsin 38.
The extraction and assay for Arabidopsis AHAS in bacterial cells is essentially as described by Singh, et. al. (J. Chromatography 444: 251-261, 1988). The bacterial pellet is powered in liquid nitrogen and homogenized in 100mM potassium phosphate buffer (pH 7.5) containing 10mM pyruvate, 5mM magnesium chloride, 5mM Na₂-EDTA, 100um flavin adenine dinucleotide (FAD), 1mM valine, 1mM leucine, 10%(v/v) glycerol and 10mM cysteine. The homogenate is filtered through a nylon cloth (53uM mesh) and centrifuged at 25,000 x g for 20 minutes. The supernatant fraction is brought to 50% saturation with respect to ammonium sulfate and allowed to stand for 20-30 minutes on ice. […]
AHAS activity in the presence or absence of herbicide is measured by estimation of the product, acetolactate, after conversion by acid decarboxylation to acetoin. […] The acetoin formed is determined by incubating with creatine (0.17%) and 1-naphthol (1.7%) by the method of Westerfeld (J. Biol. Chem. 161: 495-502, 1945). […]

A further assay has as its system W38 (wild-type). Briefly: Tobacco seed assay on herbicide medium, W38. Format: in vivo. As to conditions: after three weeks. The protocol: (§1) Seeds resulting from transgenic plant 10-1 are also assayed for resistance to the imidazolinone Pursuit®. Seeds are plated onto medium containing Pursuit® at 0, 1.25, 2.5, 3.75, and 5.0 µM. Twenty seeds are plated per petri dish, with two dishes per treatment. Herbicide tolerance of seedlings is evaluated after three weeks. […]

For another assay, the system named is 0 x 10-1. The assay can be described thus: Tobacco seed assay on herbicide medium, 0 x 10-1. Conditions: 5 µM in medium; twenty seeds per dish; after three weeks. It counts as in vivo. The protocol: as §1
The mark [4] stands for this setting: 5 µM in medium, twenty seeds per dish.

T2 sequence (P17597 56-670 S653N): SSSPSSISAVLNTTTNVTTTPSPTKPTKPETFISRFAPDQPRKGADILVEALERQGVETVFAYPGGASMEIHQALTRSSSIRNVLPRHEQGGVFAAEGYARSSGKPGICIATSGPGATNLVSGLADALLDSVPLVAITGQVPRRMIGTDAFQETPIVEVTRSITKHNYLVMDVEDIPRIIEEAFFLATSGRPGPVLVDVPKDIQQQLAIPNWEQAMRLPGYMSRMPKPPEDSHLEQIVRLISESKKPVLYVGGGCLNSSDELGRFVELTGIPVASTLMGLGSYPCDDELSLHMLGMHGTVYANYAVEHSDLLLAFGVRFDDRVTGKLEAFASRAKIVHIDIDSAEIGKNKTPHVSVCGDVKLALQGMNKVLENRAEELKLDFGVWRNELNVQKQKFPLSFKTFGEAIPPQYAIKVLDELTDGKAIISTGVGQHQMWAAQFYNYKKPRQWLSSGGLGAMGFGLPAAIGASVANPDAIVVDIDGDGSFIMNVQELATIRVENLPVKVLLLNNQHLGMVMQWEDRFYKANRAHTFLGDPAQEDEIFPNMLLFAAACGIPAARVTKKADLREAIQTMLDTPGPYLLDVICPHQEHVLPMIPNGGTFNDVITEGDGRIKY
T3 sequence (P17597 other isoform, or with tags, fused parts or gaps DEL574-574): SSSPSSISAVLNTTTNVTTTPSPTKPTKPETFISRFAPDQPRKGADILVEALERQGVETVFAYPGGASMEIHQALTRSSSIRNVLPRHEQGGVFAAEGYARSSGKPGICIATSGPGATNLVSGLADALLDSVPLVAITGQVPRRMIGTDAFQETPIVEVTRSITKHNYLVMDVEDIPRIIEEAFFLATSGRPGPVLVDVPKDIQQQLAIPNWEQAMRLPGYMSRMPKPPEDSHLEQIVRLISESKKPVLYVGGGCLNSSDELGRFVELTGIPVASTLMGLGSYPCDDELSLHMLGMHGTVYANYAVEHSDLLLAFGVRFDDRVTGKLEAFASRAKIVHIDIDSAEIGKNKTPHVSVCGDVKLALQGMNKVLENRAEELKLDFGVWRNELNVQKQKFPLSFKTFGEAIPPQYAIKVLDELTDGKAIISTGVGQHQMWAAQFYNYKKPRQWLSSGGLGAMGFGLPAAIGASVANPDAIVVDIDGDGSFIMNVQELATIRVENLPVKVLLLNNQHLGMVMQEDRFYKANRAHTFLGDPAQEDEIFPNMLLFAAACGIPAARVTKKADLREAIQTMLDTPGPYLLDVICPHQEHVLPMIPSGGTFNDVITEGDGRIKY

As to `CCc1cnc(C2=NC(C)(C(C)C)C(=O)N2)c(C(=O)O)c1` (stereo not shown) [Pursuit®], the “sensitivity of AHAS enzyme to herbicide” value in assay [1] is “sensitive”. In assay [2], the “sensitivity of AHAS enzyme to herbicide” value is on record as “insensitive to inhibition”. Further, the “AHAS activity on addition of herbicide” value in assay [3] is reported as “exhibits insensitivity”. Further, in the assay on W38 (wild-type) (setting [4]), the “D (Damaged), number of seedlings per dish” value is 0; the “R (Resistant), number of seedlings per dish” value is reported as 0; the “S (Susceptible), number of seedlings per dish” value amounted to 20. Further, the “herbicide tolerance of seedlings” value with W38 (wild-type) (control plants, lowest concentration, 1.25 µM in medium) is “exhibited herbicide sensitivity”. In the assay with 0 x 10-1, the “D (Damaged), number of seedlings per dish” value is 9 and 8; the “R (Resistant), number of seedlings per dish” value is on record as 0; the “S (Susceptible), number of seedlings per dish” value is 10 and 8.
